Calls of active or inactive are those of the source.
Columns and labels:
[1] = Luminescence-based dose response cell-based high throughput screening assay for cytotoxic compounds using the IEC-6 intestinal epithelial cell line. [Related pubchem assays: 1858 (Summary AID.), 1825 (Counterscreen.), 1907 (Confirmation screen.)]; assay type: functional
BJ = test: BJ-TERT-LT-ST fibroblast viability loss – cell-based, RAS-independent, luminescence, dose response (AID 1935); assay type: functional; conditions: Homo sapiens;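 also: BJ fibroblasts immortalized with TERT plus LT and ST oncogenes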
[2] = viability of HCT116 lacking mutant beta-catenin – cell-based, human colon tumor, dose response (AID 1045); assay type: functional;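 also: HCT116 colon tumor cells with beta catenin knocked out; cells exposed to compound for 60 hours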
[3] = target: Induced myeloid leukemia cell differentiation protein Mcl-1 (Homo sapiens, UniProt Q07820); assay type: functional
Streptococcus = test: GAS UMAA2166 growth inhibition – luminescence, BacTiterGlo, counter-screen for streptokinase expression inhibitor project, dose response (AID 1915); assay type: functional, organism-based;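 also: potency for reduction of bacterial viability or growth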
[4] = target: Glucose-6-phosphate 1-dehydrogenase (Homo sapiens, UniProt P11413); test: inhibition of Homo sapiens G6PD, dose series – biochemical, fluorescence, selectivity assay for P. falciparum G6PD inhibitor project, dose response (AID 504792); assay type: functional
Caspase-3 = target: T1, Caspase-3 (Homo sapiens, UniProt P42574); assay type: functional;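 also: Dose-response selectivity test against caspase-3 for candidate inhibitors of sentrin-specific proteases (SENPs)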
T1 sequence (P42574 whole entry): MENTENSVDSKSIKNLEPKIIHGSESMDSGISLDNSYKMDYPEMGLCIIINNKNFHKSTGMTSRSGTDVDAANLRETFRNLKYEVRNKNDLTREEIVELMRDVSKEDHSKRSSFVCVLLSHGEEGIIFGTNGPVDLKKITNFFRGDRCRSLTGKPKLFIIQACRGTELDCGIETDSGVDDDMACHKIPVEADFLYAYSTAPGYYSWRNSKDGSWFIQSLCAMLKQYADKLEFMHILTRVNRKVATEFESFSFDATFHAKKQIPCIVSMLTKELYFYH

[5] = target: T2, Sentrin-specific protease 7 (Homo sapiens, UniProt Q9BQF6); assay type: functional;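 also: Luminescence-based dose-response confirmation of ultra-high-throughput screening hits, measuring inhibition of SENP7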
T2 sequence (Q9BQF6 whole entry): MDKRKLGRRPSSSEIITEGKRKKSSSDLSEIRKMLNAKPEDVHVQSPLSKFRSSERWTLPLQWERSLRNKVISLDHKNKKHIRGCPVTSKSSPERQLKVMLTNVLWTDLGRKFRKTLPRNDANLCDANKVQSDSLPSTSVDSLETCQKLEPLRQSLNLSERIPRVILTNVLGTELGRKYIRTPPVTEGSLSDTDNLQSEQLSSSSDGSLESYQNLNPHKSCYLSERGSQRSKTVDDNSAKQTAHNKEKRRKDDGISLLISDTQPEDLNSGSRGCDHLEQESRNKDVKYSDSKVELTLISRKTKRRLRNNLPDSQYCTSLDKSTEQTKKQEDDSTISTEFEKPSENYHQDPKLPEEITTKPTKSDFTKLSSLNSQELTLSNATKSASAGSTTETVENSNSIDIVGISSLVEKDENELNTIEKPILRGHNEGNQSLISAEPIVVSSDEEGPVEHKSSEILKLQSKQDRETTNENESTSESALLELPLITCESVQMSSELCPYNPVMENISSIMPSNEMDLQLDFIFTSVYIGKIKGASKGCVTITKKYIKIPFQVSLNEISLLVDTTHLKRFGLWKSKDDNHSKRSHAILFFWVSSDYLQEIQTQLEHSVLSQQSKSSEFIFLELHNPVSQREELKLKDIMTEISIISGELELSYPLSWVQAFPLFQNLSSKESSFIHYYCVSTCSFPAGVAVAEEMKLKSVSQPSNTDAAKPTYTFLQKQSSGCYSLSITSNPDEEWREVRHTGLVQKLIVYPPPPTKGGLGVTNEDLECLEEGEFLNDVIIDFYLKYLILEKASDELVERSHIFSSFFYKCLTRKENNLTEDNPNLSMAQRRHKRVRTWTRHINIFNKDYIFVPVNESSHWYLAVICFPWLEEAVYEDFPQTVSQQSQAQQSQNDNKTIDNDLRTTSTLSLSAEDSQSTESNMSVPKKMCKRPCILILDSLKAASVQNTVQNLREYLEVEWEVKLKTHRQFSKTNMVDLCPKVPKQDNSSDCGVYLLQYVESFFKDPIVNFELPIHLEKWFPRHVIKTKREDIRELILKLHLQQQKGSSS

[6] = target: T3, Mannose-6-phosphate isomerase (Homo sapiens, UniProt P34949); test: MPI inhibition at elevated mannose 6-phosphate – biochemical, fluorescence intensity, high mannose 6-phosphate, primary screen (AID 1220)
T3 sequence (P34949 whole entry): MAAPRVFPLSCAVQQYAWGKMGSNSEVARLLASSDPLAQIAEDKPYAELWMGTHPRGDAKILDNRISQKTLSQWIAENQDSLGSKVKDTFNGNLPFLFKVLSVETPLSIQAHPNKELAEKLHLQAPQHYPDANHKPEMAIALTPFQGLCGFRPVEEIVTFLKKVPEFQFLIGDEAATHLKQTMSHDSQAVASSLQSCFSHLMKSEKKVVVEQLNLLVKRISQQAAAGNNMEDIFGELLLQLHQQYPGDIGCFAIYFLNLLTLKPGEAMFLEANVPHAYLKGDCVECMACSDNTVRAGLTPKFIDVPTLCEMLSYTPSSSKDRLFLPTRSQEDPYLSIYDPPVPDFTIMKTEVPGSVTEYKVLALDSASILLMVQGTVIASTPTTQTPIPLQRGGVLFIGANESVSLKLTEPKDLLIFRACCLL

Chain of Glucose-6-phosphate 1-dehydrogenase (P11413 whole entry): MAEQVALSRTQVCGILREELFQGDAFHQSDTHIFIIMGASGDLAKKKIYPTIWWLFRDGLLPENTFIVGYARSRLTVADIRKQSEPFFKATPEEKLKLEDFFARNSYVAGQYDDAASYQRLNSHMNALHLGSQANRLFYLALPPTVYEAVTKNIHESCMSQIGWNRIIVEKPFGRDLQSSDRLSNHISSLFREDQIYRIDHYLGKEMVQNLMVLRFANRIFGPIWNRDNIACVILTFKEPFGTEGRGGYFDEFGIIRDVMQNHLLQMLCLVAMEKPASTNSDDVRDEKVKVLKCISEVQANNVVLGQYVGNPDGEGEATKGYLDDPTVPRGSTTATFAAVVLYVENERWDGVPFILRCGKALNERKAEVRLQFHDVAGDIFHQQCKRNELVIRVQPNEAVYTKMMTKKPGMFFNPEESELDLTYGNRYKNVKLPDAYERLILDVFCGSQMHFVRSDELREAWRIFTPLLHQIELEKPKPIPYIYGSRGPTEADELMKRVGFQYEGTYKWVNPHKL
Chain of Induced myeloid leukemia cell differentiation protein Mcl-1 (Q07820 whole entry): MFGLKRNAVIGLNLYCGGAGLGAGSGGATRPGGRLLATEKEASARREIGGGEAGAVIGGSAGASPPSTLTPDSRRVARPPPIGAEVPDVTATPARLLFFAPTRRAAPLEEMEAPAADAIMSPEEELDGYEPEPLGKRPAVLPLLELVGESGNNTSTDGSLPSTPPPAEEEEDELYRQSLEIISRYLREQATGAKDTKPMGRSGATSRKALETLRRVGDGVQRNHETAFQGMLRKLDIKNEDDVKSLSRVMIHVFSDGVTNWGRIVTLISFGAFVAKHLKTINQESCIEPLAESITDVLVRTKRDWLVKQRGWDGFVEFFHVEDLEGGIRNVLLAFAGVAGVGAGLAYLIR

Row | SMILES | IC50 [1] | EC50 [2] | IC50 [3] | IC50 [4] | IC50 (Caspase-3) | IC50 [5] | IC50 [6] | further results
1 | CC(=O)NC(c1ccc2ccccc2c1)c1ccc2cccnc2c1O (stereo unspecified) | 1.05 µM (active) | – | – | – | – | – | – | EC50 (BJ): 6.07 µM (inconclusive)
2 | CCOC(=O)c1c(C)[nH]c2c1-c1ccccc1C(=O)C2=O | 0.421 µM (active) | 0.403 µM (active) | – | – | – | – | – | –
3 | O=[N+]([O-])c1c(NCCO)cc(Sc2nc3ccccc3s2)c2nonc12 | – | 10.7 µM (active) | 11.1 µM (not active) | > 80 µM (inactive) | – | – | – | EC50 (Streptococcus): 3.39 µM (active)
4 | O=C(c1ccccc1)c1coc2c1C(=O)c1ccccc1C2=O | – | – | – | – | 25.7 µM (active) | 12.7 µM (active) | – | –
5 | CCOC(=O)c1c(C)oc2c1c(/C=N/CCC(=O)O)c(O)c1ccccc12 | – | – | – | – | – | – | > 50 µM (not active) | –
6 | COc1ccc2c(c1)CCC(/C=N/c1ccc3c(c1)OCO3)=C2O | – | – | 16.7 µM (not active) | > 80 µM (inactive) | 65.5 µM (active) | 13.1 µM (active) | 15.6 µM (active) | –

— ChEMBL document CHEMBL1201862, “PubChem BioAssay data set” (2004)
